In patent US10799475B2, “Substituted phenyl aziridine precursor analogs for inhibiting androgen-independent prostate cancer cell growth” (Northwestern University, priority 2007, dated 2020):
Positions count from the first letter of the chain named.

Legend:
[1] = target: T1, AR (Homo sapiens, UniProt P10275); details: cited from earlier work
T1 sequence (P10275 1-920): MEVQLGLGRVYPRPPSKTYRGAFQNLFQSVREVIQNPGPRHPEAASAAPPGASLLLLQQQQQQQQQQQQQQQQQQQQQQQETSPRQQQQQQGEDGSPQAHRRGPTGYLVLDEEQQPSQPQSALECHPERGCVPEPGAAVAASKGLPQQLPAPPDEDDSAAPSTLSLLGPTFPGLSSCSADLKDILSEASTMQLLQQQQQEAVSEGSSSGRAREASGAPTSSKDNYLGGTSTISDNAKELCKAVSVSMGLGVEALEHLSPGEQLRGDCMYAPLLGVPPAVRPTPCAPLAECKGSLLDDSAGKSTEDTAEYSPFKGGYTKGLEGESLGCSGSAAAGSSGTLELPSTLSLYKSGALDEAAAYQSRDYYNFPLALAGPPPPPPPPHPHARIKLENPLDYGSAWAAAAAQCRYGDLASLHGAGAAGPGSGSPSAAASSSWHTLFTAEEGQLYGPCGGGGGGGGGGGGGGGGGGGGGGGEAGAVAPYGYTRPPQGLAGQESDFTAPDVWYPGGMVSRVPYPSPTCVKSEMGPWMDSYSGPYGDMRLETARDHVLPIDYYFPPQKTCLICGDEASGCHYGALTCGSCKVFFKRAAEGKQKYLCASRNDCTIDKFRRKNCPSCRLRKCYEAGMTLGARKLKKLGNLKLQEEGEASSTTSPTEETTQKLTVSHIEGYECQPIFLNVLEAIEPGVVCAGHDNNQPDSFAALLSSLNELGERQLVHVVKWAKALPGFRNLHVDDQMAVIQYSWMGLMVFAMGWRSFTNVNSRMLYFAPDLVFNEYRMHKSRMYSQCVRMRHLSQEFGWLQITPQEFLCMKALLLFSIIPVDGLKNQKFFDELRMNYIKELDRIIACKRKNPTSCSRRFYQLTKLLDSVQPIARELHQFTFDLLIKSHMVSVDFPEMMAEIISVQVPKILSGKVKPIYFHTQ

[2] = test system: PWR-1E cells; type: cell-based; details: tested range of concentrations
[3] = test system: B16F10 cells; type: cell-based, mouse; details: CpdA 5×10^−6 M, 72 hours
[4] = target: T2, GR (Homo sapiens, UniProt P04150); experiment: TAT.Luc dual Luciferase assay of GR transactivation in PC cells; type: cell-based; set-up: expressed in transfected cells; host or cells: LNCaP-GR (lentiviral GR); also DU145 and PC3 (endogenous GR); details: 24 hours
T2 sequence (P04150 1-777): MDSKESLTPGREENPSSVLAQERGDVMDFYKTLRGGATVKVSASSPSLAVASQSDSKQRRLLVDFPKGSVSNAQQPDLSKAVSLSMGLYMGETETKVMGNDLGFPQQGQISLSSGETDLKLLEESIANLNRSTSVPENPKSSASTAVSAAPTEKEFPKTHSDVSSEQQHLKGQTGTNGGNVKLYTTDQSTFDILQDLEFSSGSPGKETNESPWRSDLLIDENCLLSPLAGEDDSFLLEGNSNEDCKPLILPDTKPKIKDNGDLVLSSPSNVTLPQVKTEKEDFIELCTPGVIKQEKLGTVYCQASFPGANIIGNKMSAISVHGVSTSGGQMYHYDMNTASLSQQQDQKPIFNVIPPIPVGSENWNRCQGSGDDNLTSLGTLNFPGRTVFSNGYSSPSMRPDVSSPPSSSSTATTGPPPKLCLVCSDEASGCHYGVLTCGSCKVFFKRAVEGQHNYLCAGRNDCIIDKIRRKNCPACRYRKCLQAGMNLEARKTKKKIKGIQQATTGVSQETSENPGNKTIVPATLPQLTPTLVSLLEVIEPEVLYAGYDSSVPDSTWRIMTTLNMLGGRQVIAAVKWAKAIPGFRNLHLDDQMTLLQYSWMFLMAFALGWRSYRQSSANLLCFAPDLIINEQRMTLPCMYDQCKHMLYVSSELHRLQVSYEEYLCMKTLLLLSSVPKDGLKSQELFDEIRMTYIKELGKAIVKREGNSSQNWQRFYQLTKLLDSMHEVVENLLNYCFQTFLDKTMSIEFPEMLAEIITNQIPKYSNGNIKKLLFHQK
Description: FIG. 3. Effect of CpdA on GR function in PC cells. A. & B. CpdA-activated GR nuclear translocation. Cells were treated with CpdA, glucocorticoid FA, or anti-glucocorticoid RU486. Panel A (immunofluorescence). Panel B (Western blotting of nuclear protein using HDAC-1 and β-tubulin as protein loading controls). C. CpdA decreased GR-DNA binding (EMSA, nuclear proteins). LNCaP-GR cells were treated with 0.01% DMSO (control), Dex (10^−7 M) or CpdA (10^−5 M) for 4 hours. D. & E. CpdA effect on GR function. PC cells were transiently transfected with TAT.Luc (D) or κB.Luc (E), and control Renilla Luciferase reporters, treated with Dex (10^−6 M) or CpdA (10^−5 M) for 24 hours. For activation of NF-κB, cells were co-transfected with CMV.IKKβ plasmid (in panel E). Reporter activity was assessed by dual Luciferase assay and presented as factor of change.
FIG. 4. CpdA effect on GR function. A. & B. PC cells were transiently transfected with TAT.Luc (A) or κB.Luc (B), and control Renilla Luciferase reporters. Cells were treated with Dex (10^−6 M) and CpdA (10^−5 M) for 24 hours. For activation of NF-κB (as shown in panel B), cells were co-transfected with CMV.IKKβ plasmid. Reporter activity was assessed by dual Luciferase assay and presented as factor of change. […]

[5] = test system: LNCaP-GR cells; type: cell-based, human; details: monolayer and colony-forming assay, data not shown
[6] = test system: A375 cells; type: cell-based, human; details: CpdA 5×10^−6 M, 72 hours
[7] = target: T3, AR (Homo sapiens, UniProt P10275, T878A); experiment: EMSA of AR-DNA binding in LNCaP cells; type: cell-based
T3 construct: epithelial cells expressing endogenous AR, LNCaP prostate cells were studied; endogenous in cells; host or cells: LNCaP
T3 sequence (P10275 1-920 T878A): T1 sequence (P10275 1-920) with T878A

[8] = test system: PC cells; type: cell-based, human; details: 72 hours
[9] = test system: C8161 cells; type: cell-based, human; details: CpdA 5×10^−6 M, 72 hours
[10] = test system: PC3 and LNCaP-GR cells; type: cell-based, human
[11] = test system: DU145 and PC3 cells; experiment: Apoptosis by PARP cleavage, Western blotting; type: cell-based, human
[12] = test system: NF-κB; experiment: κB.Luc dual Luciferase assay of GR transrepression in PC cells; type: cell-based, human; details: all studied prostate cells, basal and IKKβ-induced, CpdA 10^−5 M, 24 hours
[13] = test system: PC3 cells; type: cell-based, human
[14] = target: T2, GR; experiment: GR nuclear translocation, Western blotting and immunofluorescence in LNCaP-GR cells; type: cell-based; set-up: expressed in transfected cells; host or cells: LNCaP-GR (lentiviral GR); also DU145 and PC3 (endogenous GR)
[15] = test system: LNCaP cells; type: cell-based, human; details: 5 μM CpdA, 1-12 days
[16] = test system: DU145 cells; type: cell-based, human
[17] = target: T2, GR; experiment: EMSA of GR-DNA binding in LNCaP-GR cells; type: cell-based; set-up: expressed in transfected cells; host or cells: LNCaP-GR (lentiviral GR); also DU145 and PC3 (endogenous GR); details: CpdA 10^−5 M, 4 hours
[18] = target: T3, AR; type: cell-based; details: LNCaP cells, CpdA 2×10^−6 M, 24 hours, basal and DHT 10^−7 M
[19] = test system: LNCaP-AR^low cells; type: cell-based, human; details: CpdA 2×10^−6 M, 1-10 days
[20] = rodents, proposed concentration 12.5 mg/kg; cited from earlier work
[21] = target: T3, AR; experiment: AR nuclear translocation, Western blot and immunofluorescence in LNCaP cells; type: cell-based; details: 16 hours
[22] = target: T2, GR; details: cited from earlier work
[23] = CpdA 10^−9 M−2×10^−5 M, 72 hours

CNCC(Cl)c1ccc(OC(C)=O)cc1.Cl (centres unmarked) [CpdA, 2-(4-acetoxyphenyl)-2-chloro-N-methyl-ethylammonium chloride]
competition for AR binding [1]: does not compete with androgen for AR binding
growth inhibition [2]: rather resistant
growth inhibition [3]: strongly inhibited growth
GR transcriptional activation (TAT.Luc) ([4]; LNCaP-GR, DU145 and PC3 cells, CpdA 10^−5 M): inhibit GR transcriptional activation
sensitivity to growth inhibition vs control cells infected with empty virus [5]: significantly more sensitive
growth inhibition [6]: strongly inhibited growth
AR DNA binding [7]: constitutively inhibit AR DNA binding and especially DHT-induced AR DNA binding
concentration range of strong cytostatic effect [8]: 2−10 μM
growth inhibition [9]: strongly inhibited growth
sensitivity to CpdA after GR blockage [10]: drastic loss of sensitivity
treatment time after which apoptosis is induced (PARP cleavage) ([11]; CpdA 2×10^−6 M): 6 to 8 days
treatment time after which cells are sensitized to TNFα-induced apoptosis ([11]; CpdA then TNFα 10 ng/ml for 16 hours): 2 days
NF-κB function (κB.Luc) [12]: strongly inhibited
growth inhibition vs vehicle-treated control [13]: 65-85%
growth inhibition, concentration-dependent [13, 23]: strongly inhibit
GR nuclear translocation [14]: induce GR nuclear import
growth inhibition [15]: strong growth inhibition
growth inhibition vs vehicle-treated control [16]: 60-65%
growth inhibition, concentration-dependent [16, 23]: strongly inhibit
GR-DNA binding [17]: constitutively inhibit glucocorticoid-induced GR-DNA binding
AR transcriptional activity [18]: inhibited basal and DHT-induced transcriptional activity of AR
growth inhibition [19]: resistant
anti-inflammatory effect [20]: strong anti-inflammatory effect
AR nuclear translocation [21]: induce AR nuclear translocation
competition for GR binding [22]: competes with glucocorticoids for GR binding

CC1(C)O[C@@H]2C[C@H]3[C@@H]4C[C@H](F)C5=CC(=O)C=C[C@]5(C)[C@@]4(F)[C@@H](O)C[C@]3(C)[C@]2(C(=O)CO)O1 [FA, fluocinolone acetonide, reference compound]
induction of TAT.Luc reporter activity ([4]; PC cells): 10-15 folds
